From the NIST ThermoML archive (doi:10.1016/j.fluid.2015.07.023)
± gives the expanded uncertainty stated by the source.

Legend:
[1] = 298.15 K; 101.33 kPa; Liquid; mechanical oscillator
[2] = refractive index (Na D-line) (dimensionless); conditions: 298.15 K; 101.33 kPa; Liquid; Standard Abbe refractometry

Row | mass density [1] [kg/m3] | refractive index [2] | Structure (SMILES)
1 | 718.3 ± 0.3 | 1.3653 ± 0.0007 | CC(C)OC(C)C [diisopropyl ether]
2 | 786.62 ± 0.21 | 1.32666 ± 0.00068 | CO [methanol]
3 | 782.45 ± 0.21 | 1.37522 ± 0.00068 | CC(C)O [propan-2-ol]
